Values quoted from earlier work in US8198305B2, “1,2-benzisoxazol-3-yl compounds” (Concert Pharmaceuticals Inc., priority 2007, dated 2012).
Like-named read-outs stand apart in the source and are kept apart here.

Conditions: phase III clinical trial

Compound: COc1cc(C(C)=O)ccc1OCCCN1CCC(c2noc3cc(F)ccc23)CC1 [iloperidone, 1-[4-[3-[4-(6-fluoro-1,2-benzisoxazol-3-yl)piperidin-1-yl]propoxy]-3-methoxyphenyl]ethanone]
- QTc prolongation (good metabolizers of iloperidone): 10.4 ms
- QTc prolongation (poor metabolizers of iloperidone): 15.0 ms
